Values of other authors in US20060127459A1, “Urogenital infection inhibition” (priority 2004, published 2006).

Test system: pathogen adherence to epithelium cells
Details: positive control, shown in U.S. patent application Ser. No. 10/401,522

## Hyaluronic acid (HLA) potassium salt
  pathogen adherence to epithelium cells: inhibit pathogen adherence
